Where two headings read alike, the source gives them in different places.

Common to all, as to assay type: biochemical
One assay deals with MMP-13h (Homo sapiens (Human), UniProt P45452). Description: Inhibition constant (Ki) on MMP-13h. The procedure, abridged: (§1)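 Protocol from prior literature applied; inhibition constants measured for human enzymes only.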
For the next assay, the target named is MMP-3h (Homo sapiens (Human), UniProt P08254). Description: Inhibition constant (Ki) on MMP-3h. The procedure, abridged: as §1
A further assay concerns human MMPs. Description: Inhibition of the panel of human MMPs (overall statements, selectivity). The settings on record: summary of table I.
The next assay concerns the target MMP-8h (Homo sapiens (Human), UniProt P22894). Description: Inhibition constant (Ki) on MMP-8h.
Another assay addresses MMP-1h (Homo sapiens (Human), UniProt P03956). Description: Inhibition constant (Ki) on MMP-1h. An excerpt:
(§2) The inhibition constant Ki of these compounds has been determined according to the protocol described by Devel et al, 2006, J. Biol. Chem. (7).
(§3) In this table I and also in table II below, “h” corresponds to human. All of the compounds have therefore been evaluated on human MMPs.

Another assay has as its target MMP-2h (Homo sapiens (Human), UniProt P08253). Description: Inhibition constant (Ki) on MMP-2h. The procedure, abridged:
as §1

A further assay concerns the target MMP-9h (Homo sapiens (Human), UniProt P14780). Description: Inhibition constant (Ki) on MMP-9h. In a few lines:
as §1

Another assay concerns the target MMP-10h (Homo sapiens (Human), UniProt P09238). The assay can be described thus: Inhibition constant (Ki) on MMP-10h.
Another assay has as its target MMP-7h (Homo sapiens (Human), UniProt P09237). The assay can be described thus: Inhibition constant (Ki) on MMP-7h.
Excerpt: as §2, §3

In another assay the target is MMP-14h (Homo sapiens (Human), UniProt P50281). The assay can be described thus: Inhibition constant (Ki) on MMP-14h. In a few lines: as §1
The target of another assay is MMP-12h (Homo sapiens (Human), UniProt P39900). Description: Inhibition constant (Ki) on MMP-12h.
[1] abbreviates: read-out: Ki MMP-13h, human MMP-13.
[2] abbreviates: read-out: Ki MMP-3h, human MMP-3.
The mark [3] stands for this setting: read-out: Ki MMP-8h, human MMP-8.
Where [4] appears, read: read-out: Ki MMP-1h, human MMP-1.
Where [5] appears, read: read-out: Ki MMP-2h, human MMP-2.
The mark [6] stands for this setting: read-out: Ki MMP-9h, human MMP-9.
The mark [7] stands for this setting: read-out: Ki MMP-10h, human MMP-10.
The mark [8] stands for this setting: read-out: Ki MMP-7h, human MMP-7.
[9] abbreviates: read-out: Ki MMP-14h, human MMP-14.
The mark [10] stands for this setting: read-out: Ki MMP-12h, human MMP-12.

MMP-2h, sequence (P08253 110-660): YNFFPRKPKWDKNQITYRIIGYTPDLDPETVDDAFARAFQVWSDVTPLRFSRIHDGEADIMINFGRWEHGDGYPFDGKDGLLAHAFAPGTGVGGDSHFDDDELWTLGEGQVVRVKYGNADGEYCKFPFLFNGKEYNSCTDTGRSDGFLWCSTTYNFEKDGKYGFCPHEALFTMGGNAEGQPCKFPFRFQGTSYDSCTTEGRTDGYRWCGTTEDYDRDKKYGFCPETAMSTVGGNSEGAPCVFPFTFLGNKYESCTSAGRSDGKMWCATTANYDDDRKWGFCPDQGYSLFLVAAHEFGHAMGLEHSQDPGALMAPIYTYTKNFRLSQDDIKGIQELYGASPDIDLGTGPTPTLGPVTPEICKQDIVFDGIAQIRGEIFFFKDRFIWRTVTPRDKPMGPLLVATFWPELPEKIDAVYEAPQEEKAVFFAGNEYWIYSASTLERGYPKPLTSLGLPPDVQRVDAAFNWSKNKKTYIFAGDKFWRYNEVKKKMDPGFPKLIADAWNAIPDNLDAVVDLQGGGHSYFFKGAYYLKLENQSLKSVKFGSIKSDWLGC
MMP-9h, sequence (P14780 94-707): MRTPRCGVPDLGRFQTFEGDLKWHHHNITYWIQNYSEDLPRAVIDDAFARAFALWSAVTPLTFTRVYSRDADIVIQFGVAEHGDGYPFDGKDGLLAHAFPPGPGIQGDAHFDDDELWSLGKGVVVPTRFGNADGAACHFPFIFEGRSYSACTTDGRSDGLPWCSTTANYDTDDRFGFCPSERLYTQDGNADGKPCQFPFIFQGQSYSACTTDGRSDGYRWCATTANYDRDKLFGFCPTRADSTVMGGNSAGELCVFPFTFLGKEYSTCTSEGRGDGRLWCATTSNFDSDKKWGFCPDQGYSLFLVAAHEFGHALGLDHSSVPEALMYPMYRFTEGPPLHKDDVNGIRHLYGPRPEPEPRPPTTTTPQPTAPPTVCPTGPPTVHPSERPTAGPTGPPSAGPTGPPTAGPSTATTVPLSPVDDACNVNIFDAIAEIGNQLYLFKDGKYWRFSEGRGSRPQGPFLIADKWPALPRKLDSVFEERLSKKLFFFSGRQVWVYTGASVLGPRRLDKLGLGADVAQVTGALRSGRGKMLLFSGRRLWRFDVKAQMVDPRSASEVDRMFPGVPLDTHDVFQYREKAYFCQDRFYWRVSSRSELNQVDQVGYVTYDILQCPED
MMP-10h, sequence (P09238 99-476): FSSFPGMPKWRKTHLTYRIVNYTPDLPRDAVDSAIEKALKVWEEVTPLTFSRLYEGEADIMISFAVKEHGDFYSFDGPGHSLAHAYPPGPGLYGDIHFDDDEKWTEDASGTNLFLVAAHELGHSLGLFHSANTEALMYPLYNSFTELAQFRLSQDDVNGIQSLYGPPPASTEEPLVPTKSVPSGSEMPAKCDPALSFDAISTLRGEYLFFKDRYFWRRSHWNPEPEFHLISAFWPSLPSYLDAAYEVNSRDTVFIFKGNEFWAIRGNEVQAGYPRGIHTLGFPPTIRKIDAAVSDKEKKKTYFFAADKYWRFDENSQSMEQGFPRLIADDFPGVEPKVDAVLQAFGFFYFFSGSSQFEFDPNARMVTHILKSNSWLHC
MMP-8h, sequence (P22894 101-467): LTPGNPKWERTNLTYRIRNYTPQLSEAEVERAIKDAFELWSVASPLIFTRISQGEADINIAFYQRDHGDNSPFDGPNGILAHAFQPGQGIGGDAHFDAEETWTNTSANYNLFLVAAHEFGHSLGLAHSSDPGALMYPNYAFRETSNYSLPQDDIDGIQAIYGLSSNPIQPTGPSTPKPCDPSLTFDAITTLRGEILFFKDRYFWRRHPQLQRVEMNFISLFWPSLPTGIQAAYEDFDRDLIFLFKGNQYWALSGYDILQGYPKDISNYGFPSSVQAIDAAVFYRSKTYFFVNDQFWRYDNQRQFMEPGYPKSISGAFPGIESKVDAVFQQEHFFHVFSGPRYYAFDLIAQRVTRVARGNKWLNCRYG
MMP-12h, sequence (P39900 106-470): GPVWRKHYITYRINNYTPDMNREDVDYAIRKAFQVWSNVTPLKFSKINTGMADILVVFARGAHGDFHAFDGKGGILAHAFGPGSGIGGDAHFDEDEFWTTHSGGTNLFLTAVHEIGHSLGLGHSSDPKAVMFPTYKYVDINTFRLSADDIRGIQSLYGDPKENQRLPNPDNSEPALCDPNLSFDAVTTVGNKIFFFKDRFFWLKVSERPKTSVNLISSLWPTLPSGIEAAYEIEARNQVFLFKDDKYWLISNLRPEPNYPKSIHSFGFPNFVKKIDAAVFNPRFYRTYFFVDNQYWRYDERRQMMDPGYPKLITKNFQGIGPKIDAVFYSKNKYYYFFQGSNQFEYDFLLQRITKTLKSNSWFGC
MMP-7h, sequence (P09237 95-267): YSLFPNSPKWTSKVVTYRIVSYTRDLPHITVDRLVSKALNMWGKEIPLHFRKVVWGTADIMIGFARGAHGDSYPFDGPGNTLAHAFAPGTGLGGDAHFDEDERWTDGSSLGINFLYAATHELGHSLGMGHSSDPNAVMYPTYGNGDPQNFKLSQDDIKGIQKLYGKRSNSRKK
MMP-1h, sequence (P03956 100-469): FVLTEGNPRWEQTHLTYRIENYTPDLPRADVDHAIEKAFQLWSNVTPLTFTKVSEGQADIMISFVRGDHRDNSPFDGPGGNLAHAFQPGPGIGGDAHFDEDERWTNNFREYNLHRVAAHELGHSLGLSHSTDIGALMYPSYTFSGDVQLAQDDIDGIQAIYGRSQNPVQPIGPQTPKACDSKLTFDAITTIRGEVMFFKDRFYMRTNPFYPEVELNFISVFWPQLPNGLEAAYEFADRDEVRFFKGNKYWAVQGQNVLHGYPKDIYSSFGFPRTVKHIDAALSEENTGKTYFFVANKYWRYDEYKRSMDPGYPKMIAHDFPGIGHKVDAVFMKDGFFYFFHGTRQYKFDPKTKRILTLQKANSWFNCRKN
MMP-3h, sequence (P08254 100-477): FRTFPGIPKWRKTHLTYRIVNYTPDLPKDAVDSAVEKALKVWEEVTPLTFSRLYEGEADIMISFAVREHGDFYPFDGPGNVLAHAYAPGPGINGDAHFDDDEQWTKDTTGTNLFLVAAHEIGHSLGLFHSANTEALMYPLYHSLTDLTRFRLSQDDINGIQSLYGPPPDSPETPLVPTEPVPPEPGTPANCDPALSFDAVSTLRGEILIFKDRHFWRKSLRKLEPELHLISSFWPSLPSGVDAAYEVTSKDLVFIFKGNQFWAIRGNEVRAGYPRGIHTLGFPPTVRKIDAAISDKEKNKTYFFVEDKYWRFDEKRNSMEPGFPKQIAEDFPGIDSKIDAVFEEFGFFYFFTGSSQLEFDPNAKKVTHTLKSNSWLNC

What is called Ki is a measure of affinity in units of concentration, obtained from inhibition or displacement. `NC(=O)[C@H](CCC(=O)O)NC(=O)[C@H](CCC(=O)O)NC(=O)CCc1cc(-c2ccc(-c3cccc(Cl)c3)cc2)no1` [Compound 3, (S)-5-amino-4-((S)-4-carboxy-2-(3-(3-(3′-chlorobiphenyl-4-yl)isoxazol-5-yl)propanamido)butanamido)-5-oxopentanoic acid]: the Ki at MMP-13h (setting [1]) is 40 nM; at MMP-3h (setting [2]), 62 nM; at MMP-8h (setting [3]), 181 nM; at MMP-1h (setting [4]) it was above 10000 nM; on MMP-2h (setting [5]) it was 76 nM; on MMP-9h (setting [6]), 565 nM. Further, the Ki at MMP-10h (setting [7]) was 47 nM; on MMP-7h (setting [8]), above 1000 nM; on MMP-14h (setting [9]) it was above 1000 nM. For the same molecule, the “inhibitory activity toward MMPs (in words)” value in the assay on human MMPs was “quite a powerful inhibitor of MMPs 2, 3, 10, 12 and 13”.

On to `NC(=O)[C@H](CCC(=O)O)NC(=O)[C@H](CCC(=O)O)NC(=O)CCc1cn(-c2ccccc2)nn1` [Compound 24, (S)-5-amino-4-((S)-4-carboxy-2-(3-(1-phenyl-1H-1,2,3-triazol-4-yl)propanamido)butanamido)-5-oxopentanoic acid], for which the Ki is above 5000 nM at MMP-13h (setting [1]); above 1000 nM on MMP-12h (setting [10]); above 1000 nM on MMP-3h (setting [2]); above 1000 nM at MMP-8h (setting [3]); above 5000 nM at MMP-2h (setting [5]); above 1000 nM at MMP-9h (setting [6]). Also, the Ki was above 1000 nM at MMP-10h (setting [7]) and above 5000 nM at MMP-14h (setting [9]). Moreover, the “inhibitory activity toward MMPs (in words)” value with human MMPs is “do not have any inhibitory activity”.

For the molecule `NC(=O)[C@H](CCC(=O)O)NC(=O)[C@H](CCC(=O)O)NC(=O)CCc1cc(-c2ccccc2)on1` [Compound 25, (S)-5-amino-4-((S)-4-carboxy-2-(3-(5-phenylisoxazol-3-yl)propanamido)butanamido)-5-oxopentanoic acid], the Ki at MMP-13h (setting [1]) was 550 nM; at MMP-12h (setting [10]), 160 nM; at MMP-3h (setting [2]) it was above 5000 nM; at MMP-8h (setting [3]), 332 nM; on MMP-2h (setting [5]), above 1000 nM; at MMP-9h (setting [6]), above 5000 nM. For the same molecule, the Ki at MMP-10h (setting [7]) and on MMP-14h (setting [9]) was above 1000 nM in each case. The “inhibitory activity toward MMPs (in words)” value in the assay on human MMPs is listed as “MMP inhibitors”.

In the case of `NC(=O)[C@H](CCC(=O)O)NC(=O)[C@H](CCC(=O)O)NC(=O)CCc1noc(-c2ccccc2)n1` [Compound 26, (S)-5-amino-4-((S)-4-carboxy-2-(3-(5-phenyl-1,2,4-oxadiazol-3-yl)propanamido)butanamido)-5-oxopentanoic acid], the Ki on MMP-13h (setting [1]) was above 1000 nM; at MMP-12h (setting [10]), above 1000 nM; on MMP-3h (setting [2]), above 5000 nM; at MMP-8h (setting [3]), above 5000 nM; at MMP-2h (setting [5]), above 5000 nM; at MMP-9h (setting [6]), above 1000 nM. The inhibition constant (Ki) at MMP-10h (setting [7]) and at MMP-14h (setting [9]) was above 5000 nM throughout. Besides, the “inhibitory activity toward MMPs (in words)” value with human MMPs is recorded as “do not have any inhibitory activity”.

As to `NC(=O)[C@H](CCC(=O)O)NC(=O)[C@H](CCC(=O)O)NC(=O)CCc1csc(-c2ccccc2)n1` [Compound 27, (S)-5-amino-4-((S)-4-carboxy-2-(3-(2-phenylthiazol-4-yl)propanamido)butanamido)-5-oxopentanoic acid], the Ki at MMP-13h (setting [1]) was 900 nM; on MMP-12h (setting [10]) it was above 5000 nM; on MMP-3h (setting [2]), above 1000 nM; on MMP-8h (setting [3]), above 1000 nM; at MMP-2h (setting [5]) it was above 1000 nM; on MMP-9h (setting [6]), above 5000 nM. In addition, the Ki on MMP-10h (setting [7]) and on MMP-14h (setting [9]) was above 5000 nM in each case. Besides, the “inhibitory activity toward MMPs (in words)” value in the assay on human MMPs is on record as “do not have any inhibitory activity”.

For the molecule `NC(=O)[C@H](CCC(=O)O)NC(=O)[C@H](CCC(=O)O)NC(=O)CCc1ccc(-c2ccc(-c3ccccc3)cc2)cc1` [Compound 61, (S)-5-amino-4-((S)-4-carboxy-2-(3-(4′-phenylbiphenyl-4-yl)propanamido)butanamido)-5-oxopentanoic acid], the Ki on MMP-13h (setting [1]) is 20 nM; on MMP-12h (setting [10]), 1.63 nM; at MMP-3h (setting [2]) it was 74 nM; on MMP-8h (setting [3]), 132 nM; on MMP-1h (setting [4]) it was above 5000 nM; at MMP-2h (setting [5]) it was 53 nM. Also, the Ki was above 1000 nM at MMP-9h (setting [6]), 76 nM at MMP-10h (setting [7]), 502 nM at MMP-7h (setting [8]) and above 1000 nM on MMP-14h (setting [9]).

As for `NC(=O)[C@H](CCC(=O)O)NC(=O)[C@H](CCC(=O)O)NC(=O)CCc1ccc(-c2cccs2)cc1` [Compound 80, (S)-5-amino-4-((S)-4-carboxy-2-(3-(4-(thiophen-2-yl)phenyl)propanamido)butanamido)-5-oxopentanoic acid], the Ki on MMP-13h (setting [1]) was 321 nM; at MMP-12h (setting [10]), 8.6 nM; at MMP-3h (setting [2]) it was above 1000 nM; at MMP-8h (setting [3]), 40 nM; on MMP-1h (setting [4]), above 100000 nM; at MMP-2h (setting [5]), 142 nM. In addition, the Ki on MMP-9h (setting [6]) is above 1000 nM; on MMP-10h (setting [7]) it was 373 nM; on MMP-7h (setting [8]), above 1000 nM; on MMP-14h (setting [9]), above 1000 nM.

For the molecule `NC(=O)[C@H](CCC(=O)O)NC(=O)CCc1ccc(-c2cc(-c3ccccc3)cs2)cc1` [Compound 105, (S)-5-amino-5-oxo-4-(3-(4-(4-phenylthiophen-2-yl)phenyl)propanamido)pentanoic acid], the Ki is 603 nM on MMP-13h (setting [1]); 3.65 nM on MMP-12h (setting [10]); above 1000 nM on MMP-3h (setting [2]); above 10000 nM on MMP-1h (setting [4]); 377 nM on MMP-2h (setting [5]); above 1000 nM at MMP-9h (setting [6]). Moreover, the Ki is above 1000 nM at MMP-10h (setting [7]), above 10000 nM at MMP-7h (setting [8]) and above 1000 nM at MMP-14h (setting [9]).

For the molecule `O=C(O)CC[C@H](NC(=O)CCc1ccc(-c2cc(-c3ccccc3)cs2)cc1)C(=O)Nc1cccc(CC(=O)O)c1` [Compound 106, (S)-5-(3-(carboxymethyl)phenylamino)-5-oxo-4-(3-(4-(4-phenylthiophen-2-yl)phenyl)propanamido)pentanoic acid], the Ki was 132 nM on MMP-13h (setting [1]); 4.3 nM on MMP-12h (setting [10]); 791 nM on MMP-3h (setting [2]); 675 nM on MMP-8h (setting [3]); above 1000 nM on MMP-1h (setting [4]); 339 nM at MMP-2h (setting [5]). In addition, the Ki is 396 nM at MMP-9h (setting [6]), 318 nM on MMP-10h (setting [7]), above 1000 nM on MMP-7h (setting [8]) and above 1000 nM on MMP-14h (setting [9]).

`N=c1ccc2c(-c3cc(C(=O)NCCCOCCOCCOCCCNC(=O)[C@H](CCC(=O)O)NC(=O)[C@H](CCC(=O)O)NC(=O)CCc4ccc(-c5cc(-c6ccccc6)cs5)cc4)ccc3C(=O)O)c3ccc(N)c(S(=O)(=O)O)c3oc-2c1S(=O)(=O)O` [Compound 108]: the Ki on MMP-13h was above 1000 nM; on MMP-12h, 15 nM; on MMP-3h, above 10000 nM; at MMP-8h, above 2500 nM; at MMP-1h, above 10000 nM; at MMP-2h, above 2500 nM. Besides, the Ki was above 5000 nM at MMP-9h, 833 nM on MMP-10h, above 10000 nM on MMP-7h and above 10000 nM on MMP-14h. In addition, the “Selectivity factor/MMP12, MMP-13h” value at MMP-13h (Ki MMP-13h/Ki MMP-12) is listed as 66. Also, the “Selectivity factor/MMP12, MMP-12h” value on MMP-12h (Ki MMP-12h/Ki MMP-12) amounted to 1. The “Selectivity factor/MMP12, MMP-3h” value at MMP-3h (Ki MMP-3h/Ki MMP-12) turned out to be 670. The “Selectivity factor/MMP12, MMP-8h” value at MMP-8h (Ki MMP-8h/Ki MMP-12) is on record as 170. Besides, at MMP-1h (Ki MMP-1h/Ki MMP-12), the “Selectivity factor/MMP12, MMP-1h” value amounted to 670. Besides, the “Selectivity factor/MMP12, MMP-2h” value on MMP-2h (Ki MMP-2h/Ki MMP-12) was 170. At MMP-9h (Ki MMP-9h/Ki MMP-12), the “Selectivity factor/MMP12, MMP-9h” value is 333. The “Selectivity factor/MMP12, MMP-10h” value on MMP-10h (Ki MMP-10h/Ki MMP-12) worked out at 55. Moreover, on MMP-7h (Ki MMP-7h/Ki MMP-12), the “Selectivity factor/MMP12, MMP-7h” value stood at 670. For the same molecule, the “Selectivity factor/MMP12, MMP-14h” value on MMP-14h (Ki MMP-14h/Ki MMP-12) was determined as 670.

These data come from patent US8691753B2 (priority 2009, dated 2014).
